In paper PMC7479175, “Selection of Potent Inhibitors of Soluble Epoxide Hydrolase for Usage in Veterinary Medicine” (Frontiers in Veterinary Science, 2020):
Like-named read-outs stand apart in the source and are kept apart here.

Columns and labels:
[1] = target: Cat sEH (Felis catus, UniProt A0ABI7ZL20); assay: sEH inhibition potency (IC50), fluorescent assay with CMNPC, partially purified enzyme; assay type: biochemical; conditions: CMNPC ([S]final = 5 μM) as substrate; average ± standard deviation (n = 3)
Chain of Cat sEH (A0ABI7ZL20 entry or part of it): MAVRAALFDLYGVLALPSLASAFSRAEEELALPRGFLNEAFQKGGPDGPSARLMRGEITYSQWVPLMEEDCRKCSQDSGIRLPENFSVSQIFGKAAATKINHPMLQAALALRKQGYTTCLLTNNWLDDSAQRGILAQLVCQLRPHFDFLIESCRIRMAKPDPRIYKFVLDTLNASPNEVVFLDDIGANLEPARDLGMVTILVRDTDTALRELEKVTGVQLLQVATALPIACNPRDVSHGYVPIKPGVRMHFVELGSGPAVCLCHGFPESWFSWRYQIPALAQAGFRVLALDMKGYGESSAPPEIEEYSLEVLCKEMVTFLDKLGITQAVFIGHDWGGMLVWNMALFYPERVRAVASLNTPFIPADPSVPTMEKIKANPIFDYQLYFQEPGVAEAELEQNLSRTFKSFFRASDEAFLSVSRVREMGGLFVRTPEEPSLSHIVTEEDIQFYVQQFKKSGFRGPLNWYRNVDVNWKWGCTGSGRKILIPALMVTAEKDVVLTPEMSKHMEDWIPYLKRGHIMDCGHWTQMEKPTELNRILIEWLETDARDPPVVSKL
Description: The IC50 values reported herein were determined using either a fluorescent based assay (CMNPC as substrate) for purified enzyme preparations or a radioactive based assay ([^3H]t-DPPO as substrate) for crude enzyme preparations ([20]). The fluorescent assay was used with the purified proteins. […] The substrate (CMNPC) was then added ([S]final = 5 μM). […] Assays were performed in triplicate.

[2] = Microsomal stability; assay type: in vitro ADME, dog; conditions: for Stability (% without microsomes) Dog liver microsomes NADPH + / Stability (% without microsomes) Dog liver microsomes NADPH –: 1 μM inhibitor, microsomes 1 mg/mL, 37°C, 30 min, compound remaining, average ± SD (n = 3); for Stability (% without microsomes) Dog liver microsomes NADPH +: with NADPH; for metabolism in dog liver microsomes (in words): in the presence of NADPH
Description: The stability of the sEH inhibitors was determined using liver microsomes as described ([24]). […] After 30 min at 37°C, the reaction was stopped by the addition of one volume of methanol containing CUDA (200 nM) as surrogate. The amount of remaining inhibitor was determined by LC/MS/MS. The stability is reported as a percentage of compound remaining after 30 min in these conditions.
Mass spectrometry analyses were performed using a Waters Quattro Premier triple quadrupole tandem mass spectrometer (Micromass, Manchester, UK) interfaced to an electrospray ionization (ESI) source. The MS was coupled with a Waters Acquity UPLC (Waters, Milford, MA, USA). A Varian Pursuit5 C18 RP HPLC column (150 mm × 2.1 mm, particle size 5 μm) was used to separate the analytes. […] The source and the desolvation temperatures were set at 120 and 300°C, respectively. […] Dwell time was set to 0.1 s.

[3] = target: T1, Dog sEH (Canis lupus familiaris, UniProt A0A8I3NJL8); assay: sEH inhibition potency (IC50), fluorescent assay with CMNPC, partially purified enzyme; assay type: biochemical; conditions: CMNPC ([S]final = 5 μM) as substrate; average ± standard deviation (n = 3)
T1 sequence (A0A8I3NJL8 1-556): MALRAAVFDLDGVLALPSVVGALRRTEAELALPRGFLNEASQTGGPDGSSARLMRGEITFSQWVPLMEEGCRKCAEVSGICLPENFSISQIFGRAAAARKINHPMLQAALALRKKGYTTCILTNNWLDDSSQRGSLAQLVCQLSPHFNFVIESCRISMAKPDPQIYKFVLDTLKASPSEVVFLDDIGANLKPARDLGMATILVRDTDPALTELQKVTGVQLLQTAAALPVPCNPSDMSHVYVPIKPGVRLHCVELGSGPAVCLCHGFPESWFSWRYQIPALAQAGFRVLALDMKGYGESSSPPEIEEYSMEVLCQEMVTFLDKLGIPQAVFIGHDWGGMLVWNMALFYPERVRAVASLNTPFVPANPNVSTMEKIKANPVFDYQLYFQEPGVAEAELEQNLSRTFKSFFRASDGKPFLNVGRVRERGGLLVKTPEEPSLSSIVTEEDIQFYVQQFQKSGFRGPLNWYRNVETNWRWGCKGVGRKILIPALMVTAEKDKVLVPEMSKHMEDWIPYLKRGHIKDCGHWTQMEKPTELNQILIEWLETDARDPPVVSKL
Description: The sEH activity from the cat, dog and horse liver was further purified to eliminate contaminating esterase activity that could interfere with the screening fluorescent assay ([16]). The cytosolic fraction was loaded on a Q-Sepharose column (100 mL) equilibrated with sodium phosphate buffer (20 mM pH 7.4). After washing of the bound proteins, the sEH activity was eluted with a step gradient of NaCl (0–1 M). The fractions containing the sEH activity were pooled and concentrated using a Centriprep-30. The concentrates were aliquoted and flash frozen, then kept frozen at −80°C until usage. […] Protein concentration was quantified using the Pierce BCA assay (Pierce, Rockford, IL), using Fraction V bovine serum albumin (BSA) as the calibrating standard.
The IC50 values reported herein were determined using either a fluorescent based assay (CMNPC as substrate) for purified enzyme preparations or a radioactive based assay ([^3H]t-DPPO as substrate) for crude enzyme preparations ([20]). The fluorescent assay was used with the purified proteins. […] The substrate (CMNPC) was then added ([S]final = 5 μM). […] The radioactive […] assay was used with the liver crude extracts. […]

[4] = target: Horse sEH (Equus caballus, UniProt F7C407); assay: Secondary screen (kinetic mode), PHOME substrate; assay type: biochemical; conditions: [I] = 100 nM, secondary kinetic mode screening; read-out: Horse sEH Inhibition (%) S.
Chain of Horse sEH (F7C407 entry or part of it): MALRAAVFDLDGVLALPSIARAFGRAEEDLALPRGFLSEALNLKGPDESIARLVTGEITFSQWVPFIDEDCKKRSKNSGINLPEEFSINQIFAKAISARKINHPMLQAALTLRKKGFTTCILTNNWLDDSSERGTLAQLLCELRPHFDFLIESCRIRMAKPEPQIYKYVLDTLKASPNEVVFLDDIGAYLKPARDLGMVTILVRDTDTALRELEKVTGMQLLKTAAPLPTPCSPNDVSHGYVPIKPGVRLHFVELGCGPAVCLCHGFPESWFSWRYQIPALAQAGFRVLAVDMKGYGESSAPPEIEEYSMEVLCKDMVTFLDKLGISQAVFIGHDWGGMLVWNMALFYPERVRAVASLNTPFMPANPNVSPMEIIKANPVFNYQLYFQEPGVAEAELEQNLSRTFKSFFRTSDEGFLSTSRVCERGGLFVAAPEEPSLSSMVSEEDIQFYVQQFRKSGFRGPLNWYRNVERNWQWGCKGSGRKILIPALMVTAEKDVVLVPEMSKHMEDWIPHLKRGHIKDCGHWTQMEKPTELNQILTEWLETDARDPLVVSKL

[5] = target: T2, sEH activity from liver cytosol of Rat (Rattus norvegicus, UniProt P80299); assay: sEH inhibition potency (IC50), radioactive assay with [3H]t-DPPO, liver cytosol; assay type: biochemical
T2 construct: The radioactive fluorescent assay was used with the liver crude extracts; from tissue; host or cells: rat liver cytosol (100,000 g supernatant)
T2 sequence (P80299 1-554): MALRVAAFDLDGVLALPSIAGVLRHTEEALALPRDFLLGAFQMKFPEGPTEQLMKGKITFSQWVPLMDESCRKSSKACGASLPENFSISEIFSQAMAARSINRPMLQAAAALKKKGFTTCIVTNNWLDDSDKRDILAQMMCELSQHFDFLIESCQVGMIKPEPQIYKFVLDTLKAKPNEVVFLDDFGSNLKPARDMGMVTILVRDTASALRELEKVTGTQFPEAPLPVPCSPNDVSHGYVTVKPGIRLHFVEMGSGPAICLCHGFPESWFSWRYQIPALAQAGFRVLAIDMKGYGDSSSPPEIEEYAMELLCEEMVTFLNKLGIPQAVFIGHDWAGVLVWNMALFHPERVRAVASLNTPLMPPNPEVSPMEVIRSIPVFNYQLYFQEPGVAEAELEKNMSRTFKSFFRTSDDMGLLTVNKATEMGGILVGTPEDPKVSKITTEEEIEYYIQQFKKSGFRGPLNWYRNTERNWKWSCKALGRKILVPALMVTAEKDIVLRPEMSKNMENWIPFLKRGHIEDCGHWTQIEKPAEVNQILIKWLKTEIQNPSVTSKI
Description: Fresh liver tissues samples (5–30 g) were collected promptly after death from healthy adult cat, dog and horse euthanized for reasons unrelated to this study, and whose bodies were given to science by the owners in line with federal regulations and protocol approved by the Institutional Animal Care and Use Committee at University of California Davis. Similarly, tissues from the other animals tested herein were collected from healthy animals immediately after being slaughter at the university abattoir. Because no animals were directly used or killed for this study, sample collections were exempted from approval by the Institutional Animal Care and Use Committee of the University of California Davis and Michigan State University. […] The tissues were flash-frozen in liquid nitrogen following removal, and then kept at −80°C until used. After thawing on ice, the samples were homogenized in chilled sodium phosphate buffer (20 mM pH 7.4) containing 5 mM EDTA, 1 mM DTT and 1 mM PMSF (tissue weight:buffer volume ratio 1:4). These homogenates were centrifuged at 100,000 g for 60 min at 4°C. The supernatant (the cytosolic fraction) was separated from the pellet, aliquoted and flash frozen in liquid nitrogen, then kept frozen at −80°C until usage.
The IC50 values reported herein were determined using either a fluorescent based assay (CMNPC as substrate) for purified enzyme preparations or a radioactive based assay ([^3H]t-DPPO as substrate) for crude enzyme preparations ([20]). The fluorescent assay was used with the purified proteins. […] The substrate (CMNPC) was then added ([S]final = 5 μM). […] The radioactive […] assay was used with the liver crude extracts. Extracts were incubated with inhibitors ([I]final = 1–1,000 nM) at 30° C for 5 min in sodium phosphate buffer (pH 7.4) containing 0.1 mg/mL of BSA and 1% of DMSO, prior to substrate introduction ([^3H]t-DPPO [S]final: 50 μM; ~12,000 dpm/assay). The enzymes were incubated at 30°C for 10 min, and the reaction was quenched by the addition of 60 μL methanol and 200 μL isooctane, which extracts the remaining epoxide from the aqueous phase. […] Assays were performed in triplicate.

[6] = liver cytosol, [3H]t-DPPO ([S]final = 5 μM) as substrate, read-out: IC50 (nM) Rat

Row | Compound | IC50 [1] | Stability (% without microsomes) Dog liver microsomes NADPH + [2] | Stability (% without microsomes) Dog liver microsomes NADPH – [2] | metabolism in dog liver microsomes (in words) [2] | IC50 [3] | inhibition at 0.1 µM [4] | IC50 [5, 6] | IC50 [5] | stability in dog liver microsomes (in words) ([2]; in the absence of NADPH)
1 | O=C(NCCCCOc1ccc(F)cc1)NC12CC3CC(CC(C3)C1)C2 [1,707] | 0.5 ± 0.02 nM | 8 ± 3% | 87 ± 17% | metabolized rapidly | 0.9 ± 0.1 nM | 87% | 7 nM |  | 
2 | O=C(Nc1ccc(OC(F)(F)F)cc1)N[C@H]1CC[C@H](Oc2ccc(C(=O)O)cc2)CC1 [1,728, trans-4-{4-[3-(4-trifluoromethoxy-phenyl)-ureido]-cyclohexyloxy}-benzoic acid] |  | 100 ± 3% | 104 ± 3% | most stable |  |  |  | 6 nM | 
3 | N#CNC(=O)CCCCCCCCCCCNC(=O)NC12CC3CC(CC(C3)C1)C2 [1,845] | 0.4 ± 0.01 nM | 34 ± 11% | 84 ± 3% | further metabolized | 0.6 ± 0.04 nM | 88% | 12 nM |  | not stable
